This passage reports GI50 and TGI results from PubChem BioAssay (NCI).

“And” between values parts separate entries of the source, which are not always exact repeats. Equal values may be shown once.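 Briefly, cells in 96-well plates were exposed to five compound concentrations for 48 h, and endpoints were estimated by linear interpolation. At the GI50, growth is halved. TGI denotes the concentration required for complete inhibition of growth.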

Among the test systems are COLO 205 colon; EKVX NSCLC; HCT-116 colon; LOX IMVI melanoma; MOLT-4 leukemia; NCI/ADR-RES ovarian; PC-3 prostate; SF-295 CNS; SW-620 colon; UACC-62 melanoma.
Assay in all cases: NCI-60 cell line screen, 48 h

For the compound `COc1cc(CNCCCN2C(=O)c3ccc4c5c(ccc(c35)C2=O)C(=O)N(CCCNCc2cc(OC)c(OC)c(OC)c2)C4=O)cc(OC)c1OC`, the GI50 in the test with COLO 205 colon is 0.139 µM; in the test on EKVX NSCLC it was 0.543 µM; with HCT-116 colon, 0.133 µM; in the test on LOX IMVI melanoma, 0.14 µM; with MOLT-4 leukemia, 0.147 µM; in the test with NCI/ADR-RES ovarian, 9.16 µM. Besides, the GI50 with PC-3 prostate is 0.387 µM; with SF-295 CNS it was 0.517 µM; with SW-620 colon, 0.203 µM; with UACC-62 melanoma, 0.793 µM. Further, the TGI in the test with COLO 205 colon is 0.352 µM; in the test on EKVX NSCLC, 1.35 µM; in the test on HCT-116 colon it was 0.41 µM; in the test on LOX IMVI melanoma, 0.525 µM; in the test on MOLT-4 leukemia it was 0.6 µM; in the test with NCI/ADR-RES ovarian, 39 µM. Further, the TGI with PC-3 prostate was 1.57 µM; with SF-295 CNS it was 1.55 µM; with SW-620 colon, 0.785 µM; in the test with UACC-62 melanoma, 1.57 µM.
In the case of `CCOC(=O)C(=Cc1cccc(Cl)c1)C(=O)OCC`, the GI50 with COLO 205 colon is 2.21 µM; in the test on EKVX NSCLC, 3.75 µM; in the test on HCT-116 colon, 1.82 µM; in the test on LOX IMVI melanoma, 1.65 µM; in the test on MOLT-4 leukemia it was 3.08 µM; in the test with NCI/ADR-RES ovarian, 3.3 µM. For the same compound, the GI50 with PC-3 prostate was 2.05 µM; with SF-295 CNS, 3.61 µM; in the test on SW-620 colon it was 2.03 µM; in the test with UACC-62 melanoma it was 1.65 µM. Moreover, the TGI in the test with COLO 205 colon was 4.42 µM; in the test with EKVX NSCLC, 14.3 µM; in the test on HCT-116 colon it was 3.83 µM; with LOX IMVI melanoma, 3.12 µM; in the test on MOLT-4 leukemia, 9.81 µM; with NCI/ADR-RES ovarian it was 16.9 µM. The TGI worked out at 4.21 µM in the test on PC-3 prostate, 13.4 µM in the test with SF-295 CNS, 4.1 µM in the test with SW-620 colon and 3.58 µM in the test with UACC-62 melanoma.
As for `CCCNC(=S)/N=C/c1c(O)c2ccccc2[nH]c1=O`, the TGI in the test on COLO 205 colon, in the test with EKVX NSCLC, in the test on HCT-116 colon, in the test on LOX IMVI melanoma, with MOLT-4 leukemia and in the test with NCI/ADR-RES ovarian was more than 100 µM each time. The TGI in the test with PC-3 prostate, in the test on SF-295 CNS, in the test with SW-620 colon and in the test with UACC-62 melanoma was more than 100 µM throughout.
`CC(=O)c1cc2c(o1)C(=O)c1ccccc1C2=O`: the GI50 is 0.192 µM and 1.72 µM in the test with COLO 205 colon; 1.19 µM and 1.55 µM in the test on EKVX NSCLC; 0.226 µM and 0.267 µM in the test on HCT-116 colon; 0.121 µM and 0.187 µM with LOX IMVI melanoma; 0.57 µM and 0.865 µM with MOLT-4 leukemia; 0.341 µM and 0.329 µM with NCI/ADR-RES ovarian. Besides, the GI50 in the test on PC-3 prostate was 0.713 µM and 0.825 µM; in the test on SF-295 CNS it was 0.173 µM; in the test with SW-620 colon it was 0.288 µM and 0.276 µM; in the test with UACC-62 melanoma, 0.229 µM and 0.178 µM. Besides, the TGI in the test with COLO 205 colon was 0.374 µM and 3.44 µM; in the test on EKVX NSCLC, 2.96 µM and 3.41 µM; with HCT-116 colon, 0.544 µM and 0.805 µM; in the test with LOX IMVI melanoma, 0.323 µM and 0.438 µM; with MOLT-4 leukemia, 1.85 µM and 3.65 µM; in the test on NCI/ADR-RES ovarian, 1.81 µM and 1.47 µM. Also, the TGI in the test with PC-3 prostate is 2.81 µM and 4.48 µM; in the test on SF-295 CNS, 0.332 µM and 0.317 µM; in the test with SW-620 colon, 0.794 µM and 0.756 µM; in the test on UACC-62 melanoma it was 0.476 µM and 0.335 µM.
As to `Cn1cnc([N+](=O)[O-])c1S(=O)(=O)Oc1ccccc1`, the GI50 was 1.68 µM with COLO 205 colon; 17 µM in the test with EKVX NSCLC; 5.37 µM in the test with HCT-116 colon; 3.3 µM with LOX IMVI melanoma; 3.65 µM with MOLT-4 leukemia; 21.7 µM in the test with NCI/ADR-RES ovarian. The GI50 with PC-3 prostate was 20.6 µM; in the test with SF-295 CNS, 29.9 µM; with SW-620 colon, 1.92 µM; in the test on UACC-62 melanoma, 14.9 µM. Moreover, the TGI was 3.29 µM in the test with COLO 205 colon; 41.2 µM in the test on EKVX NSCLC; 13.2 µM in the test on HCT-116 colon; 9.9 µM in the test with LOX IMVI melanoma; 18.9 µM with MOLT-4 leukemia; more than 65.8 µM in the test on NCI/ADR-RES ovarian. Also, the TGI with PC-3 prostate is 62 µM; in the test with SF-295 CNS it was more than 73 µM; in the test with SW-620 colon, 4.34 µM; in the test with UACC-62 melanoma, 32.2 µM.
On to `Nc1nccc2c1ccn2-c1ccc(NC(=O)c2ccc(N3CCOCC3)c(C(F)(F)F)c2)cc1`, for which the GI50 in the test on COLO 205 colon is 0.297 µM; in the test with EKVX NSCLC it was 1.69 µM; in the test with HCT-116 colon it was 0.873 µM; with LOX IMVI melanoma, 0.331 µM; with MOLT-4 leukemia, 0.318 µM; in the test with NCI/ADR-RES ovarian, 4.87 µM. The GI50 is 0.499 µM in the test on PC-3 prostate, 0.204 µM in the test on SF-295 CNS, 1.06 µM in the test on SW-620 colon and 0.337 µM in the test on UACC-62 melanoma. Further, the TGI with COLO 205 colon worked out at 0.871 µM; in the test with EKVX NSCLC, 70.2 µM; in the test with HCT-116 colon, 11.1 µM; in the test on LOX IMVI melanoma it was 1.48 µM; in the test on NCI/ADR-RES ovarian, 50.9 µM; in the test on PC-3 prostate it was 17.4 µM. Moreover, the TGI turned out to be 0.515 µM in the test on SF-295 CNS, 4.14 µM in the test with SW-620 colon and 1.19 µM with UACC-62 melanoma.
On to `CC(CC(=O)O)C(C(=O)O)C(=O)O` (centres undefined), for which the TGI with COLO 205 colon, in the test with EKVX NSCLC, with HCT-116 colon, in the test on LOX IMVI melanoma, in the test on MOLT-4 leukemia and with NCI/ADR-RES ovarian was more than 100 µM throughout. Also, the TGI in the test with PC-3 prostate, in the test on SF-295 CNS, in the test on SW-620 colon and in the test with UACC-62 melanoma was more than 100 µM throughout.
For the compound `COc1ccccc1N1CCN(CCCn2c(=O)c3c(OC)nc(C)cc3c(=O)n2-c2ccccc2)CC1`, the GI50 in the test with COLO 205 colon, in the test with EKVX NSCLC, in the test with HCT-116 colon, in the test on LOX IMVI melanoma, with MOLT-4 leukemia and in the test with NCI/ADR-RES ovarian was more than 100 µM in each case. The GI50 in the test with PC-3 prostate, in the test with SF-295 CNS, with SW-620 colon and in the test on UACC-62 melanoma was more than 100 µM throughout. Besides, the TGI in the test on COLO 205 colon, with EKVX NSCLC, in the test with HCT-116 colon, in the test with LOX IMVI melanoma, with MOLT-4 leukemia and in the test with NCI/ADR-RES ovarian was more than 100 µM in each case. Besides, the TGI in the test with PC-3 prostate, in the test on SF-295 CNS, in the test on SW-620 colon and with UACC-62 melanoma was more than 100 µM each time.
Consider `COc1ccncc1C#Cc1cncc(C(=O)Nc2ccc(CN3CCN(C)CC3)c(C(F)(F)F)c2)c1`, for which the GI50 is 11.2 µM with COLO 205 colon; 24.7 µM in the test with EKVX NSCLC; 6.72 µM with HCT-116 colon; 5.79 µM with LOX IMVI melanoma; 14.5 µM in the test with MOLT-4 leukemia; 33.4 µM with NCI/ADR-RES ovarian. The GI50 in the test with PC-3 prostate is 27.3 µM; with SF-295 CNS, 37.3 µM; in the test with SW-620 colon, 14.6 µM; in the test on UACC-62 melanoma, 13.6 µM. The TGI is 64 µM with COLO 205 colon; more than 100 µM in the test with EKVX NSCLC; more than 100 µM in the test on HCT-116 colon; 25.7 µM in the test on LOX IMVI melanoma; more than 100 µM in the test on MOLT-4 leukemia; more than 100 µM with NCI/ADR-RES ovarian. Moreover, the TGI is more than 100 µM with PC-3 prostate, more than 100 µM with SF-295 CNS, 64.3 µM in the test on SW-620 colon and more than 100 µM in the test with UACC-62 melanoma.
As for `O=C(CC(O)(C(F)(F)F)C(F)(F)F)c1cc(CC(=O)C(O)(C(F)(F)F)C(F)(F)F)cc(CC(=O)C(O)(C(F)(F)F)C(F)(F)F)c1`, the TGI was 3.06 µM in the test on COLO 205 colon; more than 9.06 µM in the test with EKVX NSCLC; 2.56 µM with HCT-116 colon; 2.81 µM with LOX IMVI melanoma; more than 10 µM in the test on MOLT-4 leukemia; more than 6.65 µM with NCI/ADR-RES ovarian. Further, the TGI is 3.95 µM in the test on PC-3 prostate, 4.47 µM in the test on SF-295 CNS, more than 10 µM in the test with SW-620 colon and 4.11 µM in the test on UACC-62 melanoma.
For `C=CCCCCCCCCCCC1(O)C=CC2=[N+](CCCCCN=C(N)N)CCCN21` (centres undefined), the GI50 with COLO 205 colon was 2.78 µM; in the test on EKVX NSCLC, 10.8 µM; in the test with HCT-116 colon it was 12.4 µM; in the test with LOX IMVI melanoma it was 6.3 µM; with MOLT-4 leukemia it was 4.4 µM; with NCI/ADR-RES ovarian it was 22.2 µM. The GI50 in the test on PC-3 prostate is 0.466 µM; in the test with SF-295 CNS it was 7.2 µM; in the test on SW-620 colon, 8.11 µM; in the test with UACC-62 melanoma, 13.3 µM. Also, the TGI is 13.9 µM in the test with COLO 205 colon; 26.7 µM in the test with EKVX NSCLC; more than 45.2 µM with HCT-116 colon; 26 µM in the test with LOX IMVI melanoma; 20.4 µM in the test on MOLT-4 leukemia; 85.6 µM with NCI/ADR-RES ovarian. The TGI in the test on PC-3 prostate was 6.39 µM; in the test with SF-295 CNS it was 24.9 µM; in the test with SW-620 colon, 24.2 µM; in the test with UACC-62 melanoma, 28.9 µM.
Turning to `CCN1CCN=c2c3cc(OC)ccc3n3cnc4ccc1c2c43`, the TGI with COLO 205 colon amounted to 0.606 µM; in the test on EKVX NSCLC it was 2.33 µM; with HCT-116 colon, 0.194 µM; in the test on LOX IMVI melanoma, 0.776 µM; with MOLT-4 leukemia it was 1.57 µM; in the test with NCI/ADR-RES ovarian it was 0.489 µM. In addition, the TGI turned out to be 0.8 µM in the test with PC-3 prostate, 1.29 µM in the test on SF-295 CNS, 2.08 µM with SW-620 colon and 0.975 µM in the test with UACC-62 melanoma.
